From US20160281089A1, “PREVENTION OF VIRAL INFECTIVITY” (priority 2005, published 2016)

Legend:
SFFV [1] = assay: NIH 3T3 cells infected with ODN-pretreated SFFV; assay type: cell-based; conditions: three days post-infection, real-time RT-PCR
Excerpt: As next step we investigated the antiviral effect of ODNs by testing pre-treated virions for residual infectivity as has been described before for HIV particles. SFFV particles were pretreated with ODN M or its variants and used to infect NIH 3T3 cells. After three days RNA was extracted from infected cells and from the supernatants and SFFV was quantified by real-time RT-PCR and analysis of amplification products (FIG. 9b).
b. NIH 3T3 cells were infected with SFFV pretreated with various ODNs. After three days the cells and supernatants were harvested and analyzed for SFFV RNA levels by quantitative real time RT-PCR (top) and RT-PCR (bottom) using GAPDH for comparison.

SFFV [2] = assay: Treatment of 5-day-SFFV-infected mice, plasma SFFV RNA by real-time RT-PCR; assay type: in vivo
Excerpt: SFFV replicates to high titers in mice, whereby the spleen is a virus-shedding reservoir. The virus stock is recovered from spleen homogenates after full-blown disease, at about day 20 post infection (pi). The clarified supernatant contains around 2×10^5 focus forming units (FFU) per mil. Infection was normally performed by intravenous (iv) injection of 4×10^3 SFFV. After 5 days the blood was recovered (100 microliters) for detection of the viral RNA. The equivalent of 0.05 microliters was enough for RNA detection by 40 cycles. One FFU corresponds to about 6×10^4 RNA copies or 3×10^4 virus particles.
A number of experiments were carried out to evaluate the effect of ODNs on the SFFV mouse model. We treated 5-day-SFFV-infected mice (thick arrow) with ODN M (triangle) and measured the plasma RNA levels 4 hours after the in vivo therapy by real-time RT-PCR (FIG. 10a.1). In a second experiment we isolated the plasma of 5-day-SFFV-infected mice and treated it ex vivo with ODN M for 4 hours (FIG. 10a.2). In the third experiment we isolated uninfected plasma, incubated it ex vivo with ODN M for 2 hours followed by the addition of SFFV for 4 more hours (FIG. 10a.3). Finally we incubated ODN M and SFFV together in normal mouse plasma ex vivo for 4 hours (FIG. 10a.4).
To elucidate further the antiviral effect of ODN M in vivo we set up different therapeutic regimens. We infected mice with SFFV and then treated them 5 days later twice at an interval of two hours with either ODN M (1 mg), asPPT, ODN A as control, or PBS. The RNA was extracted 4, 8 and 16 hours later for PCR analysis (FIG. 10b.1). The viral RNA decreased approximately 6-fold in the plasma and started to slowly increase again 16 hours post-therapy.
In the next study, we used a single injection as treatment protocol and assessed the antiviral effect of both ODN M and asPPT in a short time-course. Plasma was taken from mice at 0.5, 1, 2, and 4 hours after the single treatment (FIG. 10b.2). A strong decrease of the number of SFFV RNA copies was detectable 4 hours after treatment. […] We conclude from FIG. 10b.2 that a single injection is sufficient to decrease the number of RNA copies by approximately 6-fold 4 hours after the beginning of the therapy.
In order to test, whether the SFFV titer increases again after ODN M-treatment, and whether it remains sensitive for ODN M, we treated 5-day-SFFV-infected mice at 3 days intervals with a double dose within 2 hours intervals. Plasma was taken before and 4 hours after treatment and assessed for viral RNA levels (FIG. 10b.3). ODN M exerted a strong antiviral effect with a reduction of RNA copies of 6-fold at day 0 compared with the control. At day 3, the effect is even stronger with 8-fold decrease of the SFFV RNA level.
To obtain a more continuous effect of ODN M and asPPT on SFFV replication we treated the SFFV-infected mice every 12 hours (FIG. 10b.4). […] The lack of response is in accordance with our previous in vitro studies on the sequence-specificity of the ODN A.
PCR was performed as indicated. 1. Mice infected with 200 μl containing 4×10^3 FFU SFFV for 5 days were treated i.v. with ODN M (1 mg corresponding to about 20 μM ODN M in the blood of a mouse) or PBS 4 hours post-treatment, plasma (100 μl) was recovered and analyzed by real time RT-PCR for SFFV RNA. 2. Plasma from a 5-day-SFFV-infected mouse was recovered and 100 μl were treated with ODN M (20 μM) for 4 hours at 37° C. ex vivo and then analyzed. 3. Plasma from a mock-infected mouse was treated with ODN M (20 μM) for 2 hours and then treated with 4×10^3 FFU in 20 μl for 4 hours. 4. Plasma from mock-infected mice was incubated with a combination of SFFV (4×10^3 FFU in 20 μl) and ODN M (20 μM) for 4 hours and then analyzed. The RNA levels were determined by real-time RT-PCR in the four experimental scenarios and are shown to the right.
b. Effect of ODN treatment following SFFV-infection in vivo. […]

SFFV [3] = assay: Prophylactic SFFV mouse model: virions pre-incubated with ODNs, injected i.p., then i.v. treatments; assay type: in vivo, mice
Description: Next we evaluated the prophylactic effect of ODN M on SFFV replication. For this we established 5 groups of 5 mice each. We pre-incubated SFFV with different ODNs or PBS for 2 hours and then injected the two together intraperitoneally at time 0. Then the mice were treated at 2, 4, and 24 hours post-infection by i.v. route. After 5 days, plasma from the mice was analyzed for viral RNA levels. […] A blood smear of the mice at day 64 post-infection was analyzed by Giemsa staining.
a. SFFV virions pre-treated with ODNs for 2 hours were injected i.p. into mice. Subsequent treatments were at 2, 4 and 24 h post infection. 5 groups of 5 mice each were used: negative control (1), infection with PBS (2), ODN M (3), or ODN A treatment (4) and mock-infection with ODN M treatment (5). Bleeding was performed five days post-infection for analysis of the viral RNA. The relative RNA levels standardized to group 2 of fully infected mice (bars) as well as RT-PCR products of the individual mice (gel analysis) are shown.

[4] = treated every 12 hours, up to 60 hours
[5] = SFFV pre-incubated 2 hours, i.p., i.v. treatments at 2, 4, 24 hours, day 5

Row | Sequence | SFFV RNA in infected cells and supernatant (SFFV [1]) | decrease of SFFV RNA levels (plateau) (SFFV [2]; [4]) | viral infectivity in the body after pretreatment of the virus (SFFV [3]; pretreatment in a small test tube 1 to 4 hours, then infection of the mouse) | reduction of RNA copies compared with the control (SFFV [2]; double dose within 2 hours, day 0, 4 hours after treatment) [fold] | decrease of the SFFV RNA level (SFFV [2]; double dose within 2 hours, day 3) [fold] | antiviral effect compared with asPPT (SFFV [2]; single injection, 2 hours after beginning of therapy) | decrease of number of SFFV RNA copies (SFFV [2]; single injection, 4 hours after beginning of therapy) | decrease of viral RNA in the plasma (SFFV [2]; treated twice at an interval of two hours, 1 mg, RNA at 4, 8, 16 hours) | decrease of plasma RNA levels compared to PBS control mice (SFFV [3]; [5]) [fold] | blood smear, Giemsa staining (SFFV [3]; day 64 post-infection) | effect on viral replication (SFFV [2]; double dose at 3 days intervals) | effect on decrease of the RNA level (SFFV [2]; [4]) | reduction in RNA expression level (SFFV [3]; [5]) [%]
1 | CCCTTCCAGTCCCCCCTTTTCTTTT (chemistry not given here) [asPPT, single-stranded antisense PPT of HIV, lacks the passenger strand and the linker] | clearly less efficient | ~5 fold | completely abrogate viral infectivity | – | – | – | – | – | – | – | – | – | –
2 | TCTTTTTGGGGGGTTTGTTTGTTTTTTCTTTCATTCCCCCCTTTTTCT (chemistry not given here) [ODN M, 22-mer antisense and 22-mer second strand connected by T4, targeted to extended PPT of SFFV] | suppressed viral replication | about 10 fold | – | 6 | 8 | stronger than that of asPPT | approximately 6 fold | approximately 6 fold | 5 | normal blood cell population | – | – | –
3 | TTTTCTTTTGGGGGGTTTGGTTGGGTTTTCCCTTCCAGTCCCCCCTTTTCTTTT (phosphorothioate linkages, further chemistry not given here) [ODN A, 25 mer antisense and 25 mer passenger strand connected by T4, phosphorothioated at each end and in linker, targeted to extended PPT of HIV-1] | clearly less efficient | – | – | – | – | – | – | – | – | – | no effect on viral replication | no significant effect | 30
